The assay addresses T1, YqjM (Bacillus subtilis, UniProt P54550).
T1 construct: gene namA; purified YqjM flavoenzyme
T1 sequence (P54550 2-338): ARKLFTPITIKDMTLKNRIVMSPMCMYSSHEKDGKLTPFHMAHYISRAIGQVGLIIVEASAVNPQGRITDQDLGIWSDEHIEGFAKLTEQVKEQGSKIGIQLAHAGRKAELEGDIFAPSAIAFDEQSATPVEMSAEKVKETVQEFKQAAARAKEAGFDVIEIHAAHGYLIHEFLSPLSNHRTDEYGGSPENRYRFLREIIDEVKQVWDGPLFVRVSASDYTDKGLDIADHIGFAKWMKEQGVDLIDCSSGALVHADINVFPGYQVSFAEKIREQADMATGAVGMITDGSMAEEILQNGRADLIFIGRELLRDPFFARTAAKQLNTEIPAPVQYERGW
The assay is described as follows: stopped-flow, flavin reduction at […] nm, anaerobic. Type of assay: biochemical. The following applies: Tris-HCl 50 mM, pH 7.5, 25 °C; 25 μM YqjM; reductive half reaction.

The term Kd denotes the concentration at which binding is half-saturated. On to `NC(=O)C1=CN([C@@H]2O[C@H](COP(=O)(O)OP(=O)(O)OC[C@H]3O[C@@H](n4cnc5c(N)ncnc54)[C@H](O)[C@@H]3O)[C@@H](O)[C@H]2O)C=CC1` [NADH], for which the Kd is 140 ± 24.5 µM.

Compound `NC(=O)C1=CN([C@@H]2O[C@H](COP(=O)(O)OP(=O)(O)OC[C@H]3O[C@@H](n4cnc5c(N)ncnc54)[C@H](OP(=O)(O)O)[C@@H]3O)[C@@H](O)[C@H]2O)C=CC1` [NADPH] had a Kd of 39.8 ± 7.1 µM.

The values are drawn from paper PMC7574619, “Engineering of NADPH Supply Boosts Photosynthesis-Driven Biotransformations” (ACS Catalysis, 2020).
